Results on 14 molecules are retold here after US20110301200A1, “THYROID RECEPTOR LIGANDS” (CADILA HEALTHCARE LIMITED, priority 2008, published 2011).

The target of series [1] is T1, TR-β (Homo sapiens, UniProt P10828).
T1 sequence (P10828 1-461): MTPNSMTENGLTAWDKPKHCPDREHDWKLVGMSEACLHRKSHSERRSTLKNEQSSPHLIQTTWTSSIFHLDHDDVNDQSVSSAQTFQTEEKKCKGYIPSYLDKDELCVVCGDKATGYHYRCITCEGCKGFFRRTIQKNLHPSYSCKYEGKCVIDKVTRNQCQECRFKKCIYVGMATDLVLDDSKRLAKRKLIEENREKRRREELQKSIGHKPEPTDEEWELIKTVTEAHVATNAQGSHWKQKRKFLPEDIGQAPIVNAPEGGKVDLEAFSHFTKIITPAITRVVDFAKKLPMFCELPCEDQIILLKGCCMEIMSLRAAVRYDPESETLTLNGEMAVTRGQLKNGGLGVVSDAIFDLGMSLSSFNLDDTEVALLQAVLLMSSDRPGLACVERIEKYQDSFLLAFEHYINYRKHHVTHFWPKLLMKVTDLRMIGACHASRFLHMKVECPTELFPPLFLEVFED
In words: In vitro TR-β activity (in-house protocol). The following applies: for fold induction at 0.001 µM: Conc. 1 nM; for fold induction at 0.001 µM / fold induction at 0.01 µM / fold induction at 0.1 µM / fold induction at 1 µM: read-out: TR-β Fold Induction w.r.t T3(100 nm); for fold induction at 0.01 µM: Conc. 10 nM; for fold induction at 0.1 µM: Conc. 100 nM; for fold induction at 1 µM: Conc. 1000 nM. Format: cell-based. As to the method: (§1) In vitro TR-α & TR-β activities were determined as per in-house protocols and the results of representative compounds are provided in tables 1 & 2 below as a proof of the efficacies of the novel class of compounds disclosed above.

The test system of series [2] is cholesterol-fed rats. The series is described as follows: Cholesterol lowering and change in heart rate in cholesterol-fed rats. Format: in vivo, rat. As to conditions: treated for 7 days. Here is the method: Cholesterol lowering effect of T3 and selected compounds disclosed in the present invention on cholesterol lowering and change in heart rate in cholesterol-fed rats (treated for 7 days) was determined according to the general protocol described in PNAS, vol. […] Therefore, these compounds have the potential to be further developed as selective TR-beta agonists for the treatment of human & other animals in need of such treatment.

The target in series [3] is T2, TR-α (Homo sapiens, UniProt P10827).
T2 sequence (P10827 1-410 isoform P10827-2): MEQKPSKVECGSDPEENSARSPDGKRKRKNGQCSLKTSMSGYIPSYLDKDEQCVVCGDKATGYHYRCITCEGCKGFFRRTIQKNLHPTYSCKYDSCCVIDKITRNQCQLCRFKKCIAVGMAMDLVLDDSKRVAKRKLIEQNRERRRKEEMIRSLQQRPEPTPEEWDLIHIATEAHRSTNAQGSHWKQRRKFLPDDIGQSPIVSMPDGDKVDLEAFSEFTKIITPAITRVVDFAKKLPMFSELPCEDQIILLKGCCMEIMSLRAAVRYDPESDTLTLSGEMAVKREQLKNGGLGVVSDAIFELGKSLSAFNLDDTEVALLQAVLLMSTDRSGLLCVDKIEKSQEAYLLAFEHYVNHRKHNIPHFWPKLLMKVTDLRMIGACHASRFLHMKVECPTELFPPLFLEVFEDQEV
The series is described as follows: In vitro TR-α activity (in-house protocol). Format: cell-based. The following applies: for fold induction at 0.001 µM: Conc. 1 nM; for fold induction at 0.001 µM / fold induction at 0.01 µM / fold induction at 0.1 µM / fold induction at 1 µM: read-out: TR-α Fold Induction w.r.t T3(100 nm); for fold induction at 0.01 µM: Conc. 10 nM; for fold induction at 0.1 µM: Conc. 100 nM; for fold induction at 1 µM: Conc. 1000 nM. Here is the method: as §1

By EC50 is commonly meant the concentration giving half of the maximal effect. `CCC(C)c1cc(Oc2c(Br)cc(C=NOC(C)C(=O)O)cc2Br)ccc1O` (stereo not drawn) [Example 14, 2-(((3,5-dibromo-4-(3-(sec-butyl)-4-hydroxyphenoxy)benzylidene)amino)oxy)propanoic acid] came in with an EC50 in series [1] of 0.99 nM. Moreover, in series [2] (oral 0.1 mg/kg), the “% Change in Heart Rate” value is on record as −2% and the “% Change in Total Cholesterol” value is reported as −44%. For the same molecule, the EC50 in series [3] was 5.12 nM.
As for `N[C@@H](Cc1cc(I)c(Oc2ccc(O)c(I)c2)c(I)c1)C(=O)O` [Example T3, reference compound], in series [2] (oral 13 μg/kg), the “% Change in Heart Rate” value is 14% and the “% Change in Total Cholesterol” value is reported as −46%.
For the molecule `O=C(O)CON=Cc1cc(Br)c(Oc2ccc(O)c(C(=O)c3cccc(Cl)c3)c2)c(Br)c1` [Example 33, 2-(((3,5-dibromo-4-(3-(3-chlorobenzoyl)-4-hydroxyphenoxy)benzylidene)amino)oxy)acetic acid], in series [1], the fold induction at 0.001 µM stood at 14, the fold induction at 0.01 µM came out at 30.1, the fold induction at 0.1 µM was 72.5 and the fold induction at 1 µM turned out to be 62.1. For the same molecule, in series [3], the fold induction at 0.001 µM turned out to be 18.7, the fold induction at 0.01 µM was found to be 32.2, the fold induction at 0.1 µM came out at 52.1 and the fold induction at 1 µM was found to be 74.
Take `CCC(C)c1cc(Oc2c(Cl)cc(C=NOC(C)C(=O)O)cc2Cl)ccc1O` (stereo not drawn) [Example 23, 2-(((4-(3-(sec-butyl)-4-hydroxyphenoxy)-3,5-dichlorobenzylidene)amino)oxy)propanoic acid]: in series [1], the fold induction at 0.001 µM worked out at 19.2, the fold induction at 0.01 µM was 53.1, the fold induction at 0.1 µM turned out to be 78.9 and the fold induction at 1 µM was found to be 90. In series [3], the fold induction at 0.001 µM was determined as 22.6, the fold induction at 0.01 µM was found to be 48.2, the fold induction at 0.1 µM came out at 92.2 and the fold induction at 1 µM was found to be 138.
Consider `CC(C)c1cc(Oc2c(Br)cc(C=NOC(C)(C)C(=O)O)cc2Br)ccc1O` [Example 12, 2-(((3,5-dibromo-4-(4-hydroxy-3-isopropylphenoxy)benzylidene)amino)oxy)-2-methylpropanoic acid], for which, in series [1], the fold induction at 0.001 µM worked out at 39, the fold induction at 0.01 µM worked out at 65.4, the fold induction at 0.1 µM was determined as 119 and the fold induction at 1 µM turned out to be 67.4. Also, in series [3], the fold induction at 0.001 µM is 24, the fold induction at 0.01 µM worked out at 59.9, the fold induction at 0.1 µM is 88.7 and the fold induction at 1 µM was 110.
As for `CCC(ON=Cc1cc(Br)c(Oc2ccc(O)c(C(C)C)c2)c(Br)c1)C(=O)O` (stereo not drawn) [Example 13, 2-(((3,5-dibromo-4-(4-hydroxy-3-isopropylphenoxy)benzylidene)amino)oxy)butanoic acid], in series [1], the fold induction at 0.001 µM turned out to be 23.1, the fold induction at 0.01 µM was determined as 73.4, the fold induction at 0.1 µM amounted to 86.7 and the fold induction at 1 µM worked out at 94.6. In series [3], the fold induction at 0.001 µM worked out at 29.6, the fold induction at 0.01 µM came out at 63.9, the fold induction at 0.1 µM came to 76.8 and the fold induction at 1 µM amounted to 56.9.
With `O=C(O)CON=Cc1cc(Cl)c(Oc2ccc(O)c(Cc3ccccc3)c2)c(Cl)c1` [Example 5, 2-(((4-(3-benzyl-4-hydroxyphenoxy)-3,5-dichlorobenzylidene)amino)oxy)acetic acid], in series [1], the fold induction at 0.001 µM worked out at 14.8, the fold induction at 0.01 µM was 12, the fold induction at 0.1 µM amounted to 43.6 and the fold induction at 1 µM worked out at 80.5. In series [3], the fold induction at 0.001 µM was 14.2, the fold induction at 0.01 µM amounted to 10.8, the fold induction at 0.1 µM was 28.3 and the fold induction at 1 µM came to 57.
As to `CC(C)(ON=Cc1cc(Br)c(Oc2ccc(O)c(-c3ccccc3)c2)c(Br)c1)C(=O)O` [Example 20, 2-(((3,5-dibromo-4-((6-hydroxy-[1,1′-biphenyl]-3-yl)oxy)benzylidene)amino)oxy)-2-methyl propanoic acid], in series [1], the fold induction at 0.001 µM was 8.98, the fold induction at 0.01 µM turned out to be 14.8, the fold induction at 0.1 µM was determined as 46 and the fold induction at 1 µM was determined as 98.6. Besides, in series [3], the fold induction at 0.001 µM was 9.45, the fold induction at 0.01 µM amounted to 13.1, the fold induction at 0.1 µM turned out to be 34.5 and the fold induction at 1 µM is 74.3.
`O=C(O)CON=Cc1cc(Cl)c(Oc2ccc(O)c(-c3ccccc3)c2)c(Cl)c1` [Example 4, 2-(((3,5-dichloro-4-((6-hydroxy-[1,1′-biphenyl]-3-yl)oxy)benzylidene)amino)oxy)acetic acid]: in series [1], the fold induction at 0.001 µM stood at 11.4, the fold induction at 0.01 µM turned out to be 10.5, the fold induction at 0.1 µM amounted to 19.3 and the fold induction at 1 µM is 64.4. Further, in series [3], the fold induction at 0.001 µM was 11, the fold induction at 0.01 µM was determined as 9.45, the fold induction at 0.1 µM amounted to 14 and the fold induction at 1 µM was determined as 35.5.
Consider `O=C(O)CON=Cc1cc(Br)c(Oc2ccc(O)c(C(O)c3cccc(Cl)c3)c2)c(Br)c1` (stereo not drawn) [Example 35, 2-(((3,5-dibromo-4-(3-((3-chlorophenyl)(hydroxy)methyl)-4-hydroxyphenoxy)benzylidene)amino)oxy)acetic acid], for which the results for the concentration giving a half-maximal response (EC50) in series [1] and in series [3] were 4900 nM and 2100 nM, respectively.
Consider `CC(ON=Cc1cc(Br)c(Oc2ccc(O)c(S(=O)(=O)N[C@@H]3C[C@H]4CC[C@@H]3C4)c2)c(Br)c1)C(=O)O` (stereo partly drawn) [Example 40, 2-(((4-(3-(N-((1R,2R,4S)-bicyclo[2.2.1]heptan-2-yl)sulfamoyl)-4-hydroxyphenoxy)-3,5-dibromobenzylidene)amino)oxy)propanoic acid], for which, in series [1], the fold induction at 0.001 µM was determined as 10.1, the fold induction at 0.01 µM was found to be 9.01, the fold induction at 0.1 µM turned out to be 10.9 and the fold induction at 1 µM came to 36.5. In addition, in series [3], the fold induction at 0.001 µM worked out at 10.7, the fold induction at 0.01 µM turned out to be 9.07, the fold induction at 0.1 µM is 10.1 and the fold induction at 1 µM was 16.7.
Take `CC(C)(ON=Cc1cc(Br)c(Oc2ccc(O)c(Cc3ccccc3)c2)c(Br)c1)C(=O)O` [Example 22, 2-(((4-(3-benzyl-4-hydroxyphenoxy)-3,5-dibromobenzylidene)amino)oxy)-2-methylpropanoic acid]: in series [1], the fold induction at 0.001 µM was found to be 9.09, the fold induction at 0.01 µM came to 24.9, the fold induction at 0.1 µM was 44.9 and the fold induction at 1 µM stood at 73.9. In series [3], the fold induction at 0.001 µM is 12.1, the fold induction at 0.01 µM is 27.2, the fold induction at 0.1 µM amounted to 48.6 and the fold induction at 1 µM was 85.1.
With `CC(ON=Cc1cc(Br)c(Oc2ccc(O)c(S(=O)(=O)NC3CCCCC3)c2)c(Br)c1)C(=O)O` (stereo not drawn) [Example 39, 2-(((3,5-dibromo-4-(3-(N-cyclohexylsulfamoyl)-4-hydroxyphenoxy)benzylidene)amino)oxy)propanoic acid], in series [1], the fold induction at 0.001 µM was 11.5, the fold induction at 0.01 µM amounted to 11.2, the fold induction at 0.1 µM amounted to 15.8 and the fold induction at 1 µM is 40.4. Moreover, in series [3], the fold induction at 0.001 µM worked out at 10.6, the fold induction at 0.01 µM was determined as 11.8, the fold induction at 0.1 µM turned out to be 13.5 and the fold induction at 1 µM worked out at 29.5.
Regarding `CC(ON=Cc1cc(Br)c(Oc2ccc(O)c(Cc3ccccc3)c2)c(Br)c1)C(=O)O` (stereo not drawn) [Example 16, 2-(((4-(3-benzyl-4-hydroxyphenoxy)-3,5-dibromobenzylidene)amino)oxy)propanoic acid], in series [1], the fold induction at 0.001 µM was 12, the fold induction at 0.01 µM is 31.7, the fold induction at 0.1 µM stood at 54.3 and the fold induction at 1 µM worked out at 70.5. Besides, in series [3], the fold induction at 0.001 µM was 19.1, the fold induction at 0.01 µM worked out at 29.4, the fold induction at 0.1 µM came to 119 and the fold induction at 1 µM was found to be 161.
